pIC50: −log10 of the molar value.
Target: T1, cPLA2 (Homo sapiens, UniProt P47712)
T1 sequence (P47712 1-749): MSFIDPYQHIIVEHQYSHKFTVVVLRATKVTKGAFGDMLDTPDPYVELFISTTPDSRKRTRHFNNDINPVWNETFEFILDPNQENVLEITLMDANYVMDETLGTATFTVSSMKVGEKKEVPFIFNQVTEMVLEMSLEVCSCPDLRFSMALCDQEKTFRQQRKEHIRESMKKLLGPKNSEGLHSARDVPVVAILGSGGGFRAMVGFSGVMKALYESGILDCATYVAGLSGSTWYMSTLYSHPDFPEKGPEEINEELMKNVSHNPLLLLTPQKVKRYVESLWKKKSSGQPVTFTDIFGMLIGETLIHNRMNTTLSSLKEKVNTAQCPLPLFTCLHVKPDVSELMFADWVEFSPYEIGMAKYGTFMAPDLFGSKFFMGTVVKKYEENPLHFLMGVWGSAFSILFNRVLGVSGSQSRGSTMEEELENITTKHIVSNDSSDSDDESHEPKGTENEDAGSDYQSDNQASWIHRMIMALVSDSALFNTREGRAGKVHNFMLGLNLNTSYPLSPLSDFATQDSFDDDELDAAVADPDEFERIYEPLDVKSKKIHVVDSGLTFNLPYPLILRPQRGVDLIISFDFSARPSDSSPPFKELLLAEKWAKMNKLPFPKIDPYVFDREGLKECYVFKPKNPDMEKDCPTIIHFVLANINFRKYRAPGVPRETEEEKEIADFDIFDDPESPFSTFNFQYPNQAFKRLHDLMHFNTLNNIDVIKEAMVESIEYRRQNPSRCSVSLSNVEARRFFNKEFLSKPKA
Experiment: Coumarine Assay (hydrolysis of 7-hydroxycoumarinyl 6-heptenoate by cPLA2, fluorometric)
Format: biochemical
Settings: 60 μM 7-hydroxycoumarinyl 6-heptenoate substrate, 4 μg cPLA2, pH 7.5; excitation 360 nm, emission 460 nm; read-out: Coumarin IC50

Compound	pIC50
4-[2-(1-benzhydryl-5-chloro-2-{2-[({2-[(3R,5S)-3,5-dimethylmorpholin4-yl]ethyl}sulfonyl)amino]ethyl}-1H-indol-3-yl)ethoxy]benzoic acid [Example 250]	5.68
4-{2-[1-benzhydryl-5-chloro-2-(2-{[(2,6-dimethylbenzyl)sulfonyl]amino}ethyl)-1H-indol-3-yl]ethoxy}benzoic acid [Example 279]	6.80
O=C(O)c1ccc(OCCc2c(CCNS(=O)(=O)c3cccc(F)c3)n(C(c3ccccc3)c3ccccc3)c3ccc(Cl)cc23)cc1 [Example 223]	6.22
O=C(O)c1ccc(OCCc2c(CCNS(=O)(=O)c3c(F)cccc3F)n(C(c3ccccc3)c3ccccc3)c3ccc(Cl)cc23)cc1 [Example 225, 4-{2-[1-benzhydryl-5-chloro-2-(2-{[(2,6-fluorophenyl)sulfonyl]amino}ethyl)-1H-indol-3-yl]ethoxy}benzoic acid]	6.40
O=C(O)c1cccc(OCCc2c(CCNS(=O)(=O)Cc3ccc(Cl)c(Cl)c3)n(C(c3ccccc3)c3ccccc3)c3ccc(Cl)cc23)c1 [Example 284, 3-(2-(1-benzhydryl-5-chloro-2-(2-((3,4-dichlorophenyl)methylsulfonamido)ethyl)-1H-indol-3-yl)ethoxy) benzoic acid]	6.40

Tested on: not given
Experiment: not given
Settings: not given

melting point [°C]	Compound
117 to 119	O=C(O)c1ccc(OCCc2c(CCNS(=O)(=O)Cc3ccc(Cl)c(Cl)c3)n(C(c3ccccc3)c3ccccc3)c3ccc(Cl)cc23)cc1F [Example 296, 4-{2-[1-benzhydryl-5-chloro-2-(2-{[(3,4-dichlorobenzyl)sulfonyl]amino}ethyl)-1H-indol-3-yl]ethoxy}-2-fluorobenzoic acid]
132 to 135	O=C(O)c1ccc(OCCc2c(CCNS(=O)(=O)Cc3ccccc3Cl)n(C(c3ccccc3)c3ccccc3)c3ccc(Cl)cc23)cc1F [Example 297, 4-{2-[1-benzhydryl-5-chloro-2-(2-{[(2-chlorobenzyl)sulfonyl]amino}ethyl)-1H-indol-3-yl]ethoxy}-2-fluorobenzoic acid]
207 to 208	CC(C)(Cc1ccc(S(=O)(=O)CCc2c(CCNS(=O)(=O)Cc3ccc(Cl)c(Cl)c3)n(C(c3ccccc3)c3ccccc3)c3ccc(Cl)cc23)cc1)C(=O)O [Example 298, 3-[4-({2-[1-benzhydryl-5-chloro-2-(2-{[(3,4-dichlorobenzyl)sulfonyl]amino}ethyl)-1H-indol-3-yl]ethyl}sulfonyl)phenyl]-2,2-dimethylpropanoic acid]

Source: patent US7713964B2, “Methods for treating asthmatic conditions” (Wyeth LLC, priority 2001, dated 2010)
